Experimental data: patent US20060211651A1, “Persulfated oligosaccharide acting on selectins and chemokine” (Taisho Pharmaceutical Co., Ltd., priority 2002, published 2006)

Key:
[1] = molecular target: T1, stromal cell-derived factor-1β (Homo sapiens, UniProt P48061); assay: BIAcore surface plasmon resonance, immobilized glycosaminoglycan vs SDF-1β; format: binding; conditions: for Kd / koff / kon: GAG immobilized, 25° C.
T1 construct: purchased Pepro Tech
Experimental: (§1) Affinity kinetics of the interaction between various CS/DS chains and each of L-selectin, P-selectin, CD44 and chemokine were examined by surface plasmon resonance using BIAcore™ biosensor [manufactured by BIAcore AB].
(§2) All experiments were performed at 25° C. At stages of washing and dissociation, buffer C (20 mM HEPES-NaOH, 0.15M NaCl, 1 mM CaCl2, 1 mM MgCl2, pH6.8) was used as a running buffer.
(§3) First, about 1.8 to 2.0 kiloresonance unit (1 kiloresonance unit=1 ng/mm^2) of streptavidin were covalently immobilized onto B1 sensor chip via a primary amine group using an amine coupling kit [manufactured by Amercham-Bioscience] according to the instruction provided by the manufacturer. The remaining activated groups were blocked with 150 μl of 1M ethanolamine-HCl (pH8.5). Then, each glycosaminoglycan which had been biotinylated at a reducing end was injected to a sensor tip surface by using EZ-link™ biotin-LC-hydrazide [manufactured by Pierce] so as to obtain about 150 resonance unit of an immobilization level, according to the method of Sadir et al. [J. Biol. Chem., 276, 8288-8296 (2001); all teachings of which are hereby incorporated by reference].
(§4) Binding assay was performed by injecting continuously each of various concentrations of secondary lymphoid tissue chemokine, γ-interferon inducible protein-10, stromal cell-derived factor-1β, monomeric L-selectin [manufactured by Genzyme-Techne], monomeric P-selectin [manufactured by Genzyme-Techne] and monomeric CD44, to a glycosaminoglycan-coupled sensor tip at a flow rate of 30 μl/min for 0 to 90 seconds, and then injecting a running buffer thereto. A response in resonance unit was recorded as a function of a time.
(§5) A sensor tip surface was regenerated with 300 μl of 1 M NaCl when chemokine or CD44 was used, or regenerated with 300 μl of 1 M NaCl, and additional 100 μl of 50 mM EDTA (pH8.0), when selectin was used. As a result of regeneration of a sensor tip surface, a remarkable change in a baseline was not observed.
(§6) An affinity kinetic parameter was determined by BIAevaluation 3.0 software [manufactured by Pharmacia Biosensor] using a single site binding model. […] In FIG. 6 and Table 3, SLC denotes secondary lymphoid tissue chemokin, IP-10 denotes γ-interferon inducible protein-10, SDF-1β denotes stromal cell-derived factor-1β, CS E denotes chondroitin sulfate E, and CS A denotes chondroitin sulfate A. In addition, in Table 3, Kd value for the interaction between monomeric CD44 and chondroitin sulfate E is a value calculated from a binding amount at equilibrium, and Kd value of the interaction between CD44 and hyaluronic acid is a value calculated using CD44-Ig.

[2] = molecular target: T2, L-selectin-Ig (Homo sapiens, UniProt P14151); assay: ELISA, biotinylated versican binding to L-selectin-Ig in presence of glycosaminoglycan; conditions: 100 μg/ml glycosaminoglycan; FIG. 5
T2 construct: purchased R & D Systems Inc
Experimental: (§7) A well of a 96 well flat bottom microtiter plate was coated with BSA (5 μg/ml), anti-versican monoclonal antibody 2B1 (5 μg/ml), CD44-Ig (7 μg/ml), L-selectin-Ig (3 μg/ml), P-selectin-Ig (3 μg/ml) or chemokine (1 μg/ml), and then blocked with a phosphate buffered physiological saline containing 3% by weight of BSA. As the above chemokine, secondary lymphoid tissue chemokine, γ-interferon inducible protein-10, platelet factor 4, stromal cell-derived factor-1β [manufactured by Pepro Tech] and stromal cell-derived factor-1α [manufactured by Pepro Tech] were used.
(§8) Thereafter, the plate was washed with the buffer A, and enzyme-linked immunosorbent assay was performed in the same manner as that of the previous report [Kawashima, H. et al., J. Biol. Chem., 275, 35448-35456 (2000)]. Binding was determined by measuring absorbance at 620 nm using alkaline phosphatase-conjugated streptavidin and Blue Phos™ substrate. In FIG. 5, expression of an abscissa axis is the same as that of FIG. 4.

[3] = tested on: secondary lymphoid tissue chemokine; assay: Ca2+ mobilization in L1.2/CCR7 cells stimulated with SLC; format: cell-based; conditions: glycosaminoglycan 100 μg/ml; L1.2/CCR7 cells loaded with Fura-2; FIG. 8
Experimental: i) applying Fura-2 to stimulate to L1.2/CCR7 cell (1×10^6 cells/ml) with secondary lymphoid tissue chemokine in the presence or absence of the therapeutic or prophylactic agent (100 μg/ml) of the present invention, and
ii) measuring a fluorescent rate to monitor an intracellular calcium concentration according to the description of Hirose, J. et al. [J. Biol. Chem., 276, 5228-5234 (2001); all teachings of which are hereby incorporated by reference].
L1.2/CCR7 cells (1×10^6 cells/ml) were loaded with Fura-2, and then stimulated with secondary lymphoid tissue chemokine (“SLC” in FIG. 8) or C-terminal truncated secondary lymphoid tissue chemokine (“SLC-T” in FIG. 8), in the presence or absence of glycosaminoglycan (100 μg/ml). The intracellular calcium concentration was monitored by measuring a fluorescent rate in the same manner as described in the previous report [Hirose, J. et al., J. Biol. Chem., 276, 5228-5234 (2001)]. Chondroitin sulfate E (“CS E” in FIG. 8) and chondoroitin sulfate A (“CS A” in FIG. 8) were used as the glycosaminoglycan. In FIG. 8, an arrowhead indicates a time point at which stimulation was given.

[4] = molecular target: T3, monomeric CD44 (Homo sapiens, UniProt P16070); assay: BIAcore surface plasmon resonance, immobilized glycosaminoglycan vs monomeric CD44; format: binding
T3 construct: codons of amino acids positions 172 to 178 of human CD44; Myc-His (from vector pcDNA 3.1/Myc-His(+) B) (C); made in house; host or cells: 293T cells, secreted into conditioned medium and purified on anti-CD44 BRIC 235 Sepharose
Experimental: Human-derived CD44 cDNA was prepared by PCR using a sense primer (SEQ ID NO: 1):
Thereafter, the conditioned medium was subjected to immunoaffinity chromatography with anti-CD44 monoclonal antibody BRIC 235-coupled CNBr-activated Sepharose 4B, to obtain monomeric CD44. The resulting soluble CD44 was subjected to SDS-PAGE and silver staining. As a result, the purity of the resulting soluble CD44 was more than 95%.
as §1, §2, §3, §4, §5, §6

[5] = tested on: secondary lymphoid tissue chemokine; assay: ELISA, biotinylated versican binding to SLC in presence of glycosaminoglycan; conditions: 100 μg/ml glycosaminoglycan; FIG. 5
Experimental: as §7, §8

[6] = CD44 monomeric, GAG immobilized, 25° C.

T2 sequence (P14151 with tags, fused parts or gaps limits assumed): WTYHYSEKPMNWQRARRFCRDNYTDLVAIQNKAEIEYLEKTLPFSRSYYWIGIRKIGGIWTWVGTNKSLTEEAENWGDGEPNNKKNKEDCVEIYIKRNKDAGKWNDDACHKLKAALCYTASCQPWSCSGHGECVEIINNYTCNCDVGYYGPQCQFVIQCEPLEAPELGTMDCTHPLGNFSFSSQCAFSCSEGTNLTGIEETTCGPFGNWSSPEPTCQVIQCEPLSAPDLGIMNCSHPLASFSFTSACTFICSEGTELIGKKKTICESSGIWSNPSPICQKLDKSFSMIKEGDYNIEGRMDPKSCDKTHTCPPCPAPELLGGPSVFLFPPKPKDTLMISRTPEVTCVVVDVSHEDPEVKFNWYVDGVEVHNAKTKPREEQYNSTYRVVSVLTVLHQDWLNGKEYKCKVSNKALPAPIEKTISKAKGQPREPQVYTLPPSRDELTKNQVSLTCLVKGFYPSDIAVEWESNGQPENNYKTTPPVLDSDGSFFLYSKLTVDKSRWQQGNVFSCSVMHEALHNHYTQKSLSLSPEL
T3 sequence (P16070 21-178 limits assumed): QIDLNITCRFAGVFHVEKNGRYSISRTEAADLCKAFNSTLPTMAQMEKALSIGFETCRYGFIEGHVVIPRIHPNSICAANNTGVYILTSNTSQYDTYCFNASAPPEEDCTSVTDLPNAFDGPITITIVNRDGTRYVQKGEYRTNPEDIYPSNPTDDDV
T1 sequence (P48061 22-93): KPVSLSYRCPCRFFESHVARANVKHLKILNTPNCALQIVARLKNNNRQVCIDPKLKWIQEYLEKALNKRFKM

| Substance | Kd [1] [µM] | koff [1] [s⁻¹] | kon [1] [M⁻¹ s⁻¹] | inhibition of binding between biotinylated versican and L-selectin [2] | Ca^2+ mobilization by secondary lymphoid tissue chemokine pre-incubated with glycosaminoglycan [3] | binding of monomeric CD44 to glycosaminoglycan ([4]; monomeric CD44) | inhibition of binding between biotinylated versican and secondary lymphoid tissue chemokine [5] | interaction with immobilized glycosaminoglycan (sensorgram) [1] | Kd [4, 6] [µM] | koff [4, 6] [s⁻¹] | kon [4, 6] [M⁻¹ s⁻¹] | Kd ([4]; monomeric CD44, weakly bound, equilibrium value) [µM] |
| --- | --- | --- | --- | --- | --- | --- | --- | --- | --- | --- | --- | --- |
| chondroitin polysulfate [CPS] | 0.0863 | 0.00304 | 35200 | inhibited | did not induce | did not bind | inhibited |  |  |  |  |  |
| chondroitin sulfate A [CS A] |  |  |  |  | remarkably induced |  |  | did not interact | 85.2 | 0.049 | 576 |  |
| chondroitin sulfate E [CS E] | 0.293 | 0.0053 | 18100 | inhibited | did not induce |  | inhibited | bound |  |  |  | 211 |
| dermatan polysulfate [DPS] |  |  |  | inhibited | did not induce | did not bind | inhibited |  |  |  |  |  |
